Laboratory results from patent publication US20230151003A1, “COMPOUNDS AND METHODS OF USE” (Exelixis, Inc., priority 2020, published 2023).

How the values were obtained:
Type in all cases: cell-based
Mer = molecular target: T1, Mer (Homo sapiens, UniProt Q12866); test: Mer autophosphorylation ELISA in transient transfected 293A cells; details: Table 3 Cellular Activities; MERTK-transfected 293A cells, phospho-Mer ELISA
T1 construct: host or cells: 293A cells (Thermo Fisher #R70507)
T1 sequence (Q12866 21-999): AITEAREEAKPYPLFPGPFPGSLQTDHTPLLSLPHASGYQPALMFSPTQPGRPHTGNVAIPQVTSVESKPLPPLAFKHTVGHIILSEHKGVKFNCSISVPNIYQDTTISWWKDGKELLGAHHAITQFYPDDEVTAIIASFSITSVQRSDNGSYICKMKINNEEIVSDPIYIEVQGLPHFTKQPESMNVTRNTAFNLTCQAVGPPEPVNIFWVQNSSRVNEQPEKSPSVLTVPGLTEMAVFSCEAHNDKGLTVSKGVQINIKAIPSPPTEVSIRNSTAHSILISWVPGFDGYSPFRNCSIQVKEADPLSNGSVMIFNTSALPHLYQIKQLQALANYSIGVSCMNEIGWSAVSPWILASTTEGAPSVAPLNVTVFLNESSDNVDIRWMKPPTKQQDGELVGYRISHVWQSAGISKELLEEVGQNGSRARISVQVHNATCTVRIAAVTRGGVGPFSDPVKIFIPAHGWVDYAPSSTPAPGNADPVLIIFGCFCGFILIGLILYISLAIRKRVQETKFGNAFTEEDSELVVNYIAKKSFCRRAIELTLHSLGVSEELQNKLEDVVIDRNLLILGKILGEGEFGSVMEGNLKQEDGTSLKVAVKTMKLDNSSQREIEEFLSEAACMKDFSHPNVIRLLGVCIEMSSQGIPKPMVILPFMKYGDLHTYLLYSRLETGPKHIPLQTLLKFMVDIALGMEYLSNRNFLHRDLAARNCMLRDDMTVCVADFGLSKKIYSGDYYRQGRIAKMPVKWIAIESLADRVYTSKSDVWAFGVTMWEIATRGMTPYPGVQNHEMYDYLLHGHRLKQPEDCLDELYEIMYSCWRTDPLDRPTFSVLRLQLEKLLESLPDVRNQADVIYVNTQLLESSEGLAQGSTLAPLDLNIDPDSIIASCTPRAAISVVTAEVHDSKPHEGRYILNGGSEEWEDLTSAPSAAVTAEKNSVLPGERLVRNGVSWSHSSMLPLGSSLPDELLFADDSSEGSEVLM
Protocol: 293A cells (Thermo Fisher #R70507) were seeded at 1.5×10^6 cells/well onto 100 mm dish (Greiner #664169), in DMEM (Thermo Fisher #11995-040) containing 10% FBS (Thermo Fisher #26140-079), 1% MEM NEAA (Thermo Fisher #11140-050), 1% GlutaMax (Thermo Fisher #35050-061), and 1% Penicillin Streptomycin (Thermo Fisher #15140-122). 293A cells were incubated at 37° C., 5% CO2 for 24 h and then transfected with 6μg MERTK DNA (Genecopoeia #EX-Z8208-M02) using TransIT LT1 transfection reagent (Mirus-Bio #MIR2305). After 24 h incubation, the transfected 293A cells were seeded at 1×10^5 cells/well onto 96-well plates (Corning #3904) in DMEM growth medium overnight. Test compounds were serially diluted to produce an 8-point dose curve in fresh serum-free medium to a final concentration of 0.3% DMSO (vehicle) and added to the cells and incubated for 1 h. Cells were then immediately lysed with 150 μL of cold 1× lysis buffer […], 137 mM sodium chloride, 2 mM EDTA, 10% glycerol, 1% NP-40 alternative, 1 mM activated sodium orthovanadate, 1 mM PefaBloc SC (Sigma-Aldrich #11429868001), protease/phosphatase inhibitor tablet (Thermo Fisher #A32959)]. Lysates were clarified by centrifugation and 50 μL/well added into the human phospho-Mer DuoSet IC ELISA (R&D Systems #DYC2579-2). Assay was performed according to manufacturer's instructions and sample phospho-Mer concentrations were extrapolated using human phospho-Mer control (R&D Systems #841793) as a standard. Positive control wells (100% activity) contained DMSO-treated cell lysates. Negative control wells (0% activity) contained reference inhibitor-treated cell lysates. IC50 values were calculated by nonlinear regression analysis using a 4-parameter logistic curve fit in ActivityBase XE (IDBS).

KDR = KDR (Homo sapiens, UniProt P35968); test: KDR autophosphorylation ELISA in HUVEC cells; design: endogenous in cells; host or cells: HUVEC (Lonza #C2519A); details: Table 3 Cellular Activities, VEGF165-stimulated, phospho-KDR ELISA
Sequence of KDR (P35968 20-1356): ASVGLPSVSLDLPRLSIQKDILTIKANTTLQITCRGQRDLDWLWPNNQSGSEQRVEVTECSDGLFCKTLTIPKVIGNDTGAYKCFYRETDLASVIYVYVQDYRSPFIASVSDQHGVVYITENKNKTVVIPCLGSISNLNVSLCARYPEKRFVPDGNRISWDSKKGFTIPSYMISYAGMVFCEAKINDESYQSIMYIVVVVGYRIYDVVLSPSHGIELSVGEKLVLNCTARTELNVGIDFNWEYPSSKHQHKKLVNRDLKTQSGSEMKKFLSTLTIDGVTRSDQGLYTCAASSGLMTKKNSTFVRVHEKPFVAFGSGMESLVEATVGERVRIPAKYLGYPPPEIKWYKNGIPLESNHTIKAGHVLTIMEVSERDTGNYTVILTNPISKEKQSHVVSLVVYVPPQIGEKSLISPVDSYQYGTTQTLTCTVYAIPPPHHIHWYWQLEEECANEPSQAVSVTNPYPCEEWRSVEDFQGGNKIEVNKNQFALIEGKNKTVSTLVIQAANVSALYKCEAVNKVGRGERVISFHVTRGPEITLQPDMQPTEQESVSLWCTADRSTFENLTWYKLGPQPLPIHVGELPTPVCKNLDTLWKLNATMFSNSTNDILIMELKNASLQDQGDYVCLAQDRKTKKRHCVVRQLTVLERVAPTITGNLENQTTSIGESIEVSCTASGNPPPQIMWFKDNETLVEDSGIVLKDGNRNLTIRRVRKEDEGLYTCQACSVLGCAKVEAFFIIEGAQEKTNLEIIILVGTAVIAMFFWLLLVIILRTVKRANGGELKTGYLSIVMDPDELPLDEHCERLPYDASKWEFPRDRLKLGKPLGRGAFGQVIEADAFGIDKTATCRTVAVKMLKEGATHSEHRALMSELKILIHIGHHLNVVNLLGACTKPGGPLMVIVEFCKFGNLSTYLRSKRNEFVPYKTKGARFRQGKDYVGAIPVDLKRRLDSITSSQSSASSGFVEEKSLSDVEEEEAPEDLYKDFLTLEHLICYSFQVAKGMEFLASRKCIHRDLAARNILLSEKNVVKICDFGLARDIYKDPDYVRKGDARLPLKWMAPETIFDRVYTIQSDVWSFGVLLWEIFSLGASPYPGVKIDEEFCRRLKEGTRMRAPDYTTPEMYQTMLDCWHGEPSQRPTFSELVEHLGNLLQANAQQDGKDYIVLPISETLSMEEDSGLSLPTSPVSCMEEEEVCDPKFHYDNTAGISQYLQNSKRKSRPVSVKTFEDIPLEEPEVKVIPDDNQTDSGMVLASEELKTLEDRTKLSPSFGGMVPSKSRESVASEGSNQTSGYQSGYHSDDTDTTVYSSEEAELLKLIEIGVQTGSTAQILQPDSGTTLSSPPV
Protocol: Human umbilical vein endothelial cells or HUVEC (Lonza #C2519A) were seeded at 2×10^4 cells/well onto 96-well plates (Corning #3904), in EGM-2 growth medium (Lonza #CC-3162) containing 1% Penicillin Streptomycin (Thermo Fisher #15140-122). HUVEC cells were incubated at 37° C., 5% CO2 for 24 h and then starved for 24 h in serum-free EBM-2 basal medium (Lonza #CC-3156) containing 1% Penicillin Streptomycin. Test compounds were serially diluted to produce an 8-point dose curve in fresh serum-free medium to a final concentration of 0.3% DMSO (vehicle) and added to the cells and incubated for 1 h. Cells were then stimulated with 100 ng/mL recombinant human VEGF165 (R&D Systems #293-VE-500) for 5 min, washed with cold PBS, and immediately lysed with 130 μL of cold 1× lysis buffer [20 mM Tris, 137 mM sodium chloride, 2 mM EDTA, 10% glycerol, 1% NP-40 alternative, 1 mM activated sodium orthovanadate, 1 mM PefaBloc SC (Sigma-Aldrich #11429868001), protease/phosphatase inhibitor tablet (Thermo Fisher #A32959)]. Lysates were collected and 100 μL/well added into the human phospho-KDR DuoSet IC ELISA (R&D Systems #DYC1766-2). Assay was performed according to manufacturer's instructions and sample phospho-KDR concentrations were extrapolated using human phospho-KDR control (R&D Systems #841421) as a standard. Positive control wells (100% activity) contained VEGF165-stimulated, DMSO-treated cell lysates. Negative control wells (0% activity) contained non-stimulated cell lysates. IC50 values were calculated by nonlinear regression analysis using a 4-parameter logistic curve fit in ActivityBase XE (IDBS).

Met = Met (Homo sapiens, UniProt P08581); test: Met autophosphorylation ELISA in PC-3 cells; design: endogenous in cells; host or cells: PC-3 prostate cancer cells (ATCC #CRL-1435); details: Table 3 Cellular Activities, HGF-stimulated, phospho-Met ELISA, read-out: c-Met IC50
Sequence of Met (P08581 25-1390): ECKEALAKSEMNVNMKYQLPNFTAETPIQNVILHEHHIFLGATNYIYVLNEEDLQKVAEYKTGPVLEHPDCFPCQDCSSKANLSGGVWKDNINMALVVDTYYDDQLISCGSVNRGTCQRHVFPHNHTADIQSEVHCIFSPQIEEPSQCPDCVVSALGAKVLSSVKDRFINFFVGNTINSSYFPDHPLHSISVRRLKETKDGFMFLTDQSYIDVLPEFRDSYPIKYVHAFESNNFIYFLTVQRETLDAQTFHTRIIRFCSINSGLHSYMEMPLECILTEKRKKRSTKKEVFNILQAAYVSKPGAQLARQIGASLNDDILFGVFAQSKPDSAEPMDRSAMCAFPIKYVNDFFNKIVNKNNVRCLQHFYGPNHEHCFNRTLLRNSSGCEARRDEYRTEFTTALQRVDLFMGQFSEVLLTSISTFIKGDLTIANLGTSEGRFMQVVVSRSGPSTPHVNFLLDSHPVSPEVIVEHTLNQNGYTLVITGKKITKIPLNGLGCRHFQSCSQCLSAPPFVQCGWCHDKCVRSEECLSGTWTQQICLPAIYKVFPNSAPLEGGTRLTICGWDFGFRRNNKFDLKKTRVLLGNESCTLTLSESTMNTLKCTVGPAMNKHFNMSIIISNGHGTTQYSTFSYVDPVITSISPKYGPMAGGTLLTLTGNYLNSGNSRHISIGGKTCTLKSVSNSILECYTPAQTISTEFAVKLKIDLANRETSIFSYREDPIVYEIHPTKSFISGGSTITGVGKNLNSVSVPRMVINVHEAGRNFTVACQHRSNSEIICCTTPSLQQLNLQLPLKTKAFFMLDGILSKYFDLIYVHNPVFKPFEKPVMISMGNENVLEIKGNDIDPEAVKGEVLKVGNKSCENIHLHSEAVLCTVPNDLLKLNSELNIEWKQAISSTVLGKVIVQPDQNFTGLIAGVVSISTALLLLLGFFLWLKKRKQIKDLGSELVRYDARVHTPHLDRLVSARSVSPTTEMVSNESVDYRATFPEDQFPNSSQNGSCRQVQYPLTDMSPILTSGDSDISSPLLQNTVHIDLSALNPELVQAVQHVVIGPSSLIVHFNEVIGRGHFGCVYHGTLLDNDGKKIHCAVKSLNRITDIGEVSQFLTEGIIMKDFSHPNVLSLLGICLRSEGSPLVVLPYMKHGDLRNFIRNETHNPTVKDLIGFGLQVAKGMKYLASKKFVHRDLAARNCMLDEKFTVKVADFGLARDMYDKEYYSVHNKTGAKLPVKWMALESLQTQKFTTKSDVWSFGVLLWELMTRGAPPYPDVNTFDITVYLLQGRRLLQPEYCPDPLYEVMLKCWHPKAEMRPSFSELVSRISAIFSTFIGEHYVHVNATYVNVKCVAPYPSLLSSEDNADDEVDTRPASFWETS
Protocol: PC-3 prostate cancer cells (ATCC #CRL-1435) were seeded at 4×10^4 cells/well onto 24-well plates (Greiner #662165), in DMEM (Thermo Fisher #11995-040) containing 10% FBS (Thermo Fisher #26140-079), 1% MEM NEAA (Thermo Fisher #11140-050), 1% GlutaMax (Thermo Fisher #35050-061), and 1% Penicillin Streptomycin (Thermo Fisher #15140-122). PC-3 cells were incubated at 37° C., 5% CO2 for 24 h and then starved for 3 h in serum-free medium. Test compounds were serially diluted to produce an 8-point dose curve in fresh serum-free medium to a final concentration of 0.3% DMSO (vehicle) and added to the cells and incubated for 1 h. Cells were then stimulated with 100 ng/mL recombinant human HGF (R&D Systems #294-HG-250) for 10 min, washed with cold PBS, and immediately lysed with 130 μL of cold 1× lysis buffer [20 mM Tris, 137 mM sodium chloride, 2 mM EDTA, 10% glycerol, 1% NP-40 alternative, 1 mM activated sodium orthovanadate, 1 mM PefaBloc SC (Sigma-Aldrich #11429868001), protease/phosphatase inhibitor tablet (Thermo Fisher #A32959)]. Lysates were clarified by centrifugation and 100 μL/well added into the PathScan phospho-Met (panTyr) Sandwich ELISA (Cell Signaling Technology #7333). Assay was performed according to manufacturer's instructions. Positive control wells (100% activity) contained HGF-stimulated, DMSO-treated cell lysates. Negative control wells (0% activity) contained HGF-stimulated, reference inhibitor-treated cell lysates. IC50 values were calculated by nonlinear regression analysis using a 4-parameter logistic curve fit in ActivityBase XE (IDBS).

Structure (SMILES)	IC50 (Mer) [nM]	IC50 (KDR) [nM]	IC50 (Met) [nM]
COc1cc2nccc(Oc3ccc(NC(=O)c4c5n(c(C)c(-c6ccco6)c4=O)CCOC5)cc3F)c2nc1OC [Compound 314, N-[4-[(6,7-Dimethoxy-1,5-naphthyridin-4-yl)oxy]-3-fluorophenyl]-7-(furan-2-yl)-6-methyl-8-oxo-3,4-dihydro-1H-pyrido[2,1-c][1,4]oxazine-9-carboxamide]	≤ 100	–	≤ 100
COc1cc2nccc(Oc3ccc(NC(=O)c4c5n(c(C)c(-c6cc(C)cs6)c4=O)CCOC5)cc3)c2nc1OC [Compound 313, N-[4-[(6,7-Dimethoxy-1,5-naphthyridin-4-yl)oxy]phenyl]-6-methyl-7-(4-methylthiophen-2-yl)-8-oxo-3,4-dihydro-1H-pyrido[2,1-c][1,4]oxazine-9-carboxamide]	≤ 100	–	100 to 300
CCOc1ccc(-n2c(C)ccc(C(=O)Nc3ccc(Oc4ccnc5cc(OC)c(OC)nc45)c(F)c3)c2=O)nc1 [Compound 212, N-[4-[(6,7-Dimethoxy-1,5-naphthyridin-4-yl)oxy]-3-fluorophenyl]-1-(5-ethoxypyridin-2-yl)-6-methyl-2-oxopyridine-3-carboxamide]	–	–	100 to 300
CCOc1ccc(-n2c(C)ccc(C(=O)Nc3ccc(Oc4ccnc5cc(OC)cnc45)c(F)c3)c2=O)nc1 [Compound 213, 1-(5-Ethoxypyridin-2-yl)-N-[3-fluoro-4-[(7-methoxy-1,5-naphthyridin-4-yl)oxy]phenyl]-6-methyl-2-oxopyridine-3-carboxamide]	–	–	300 to 1000
COc1cc2nccc(Oc3ccc(NC(=O)c4c5n(c(C)c(-c6cccs6)c4=O)CCOC5)cc3)c2nc1OC [Compound 316, N-[4-[(6,7-Dimethoxy-1,5-naphthyridin-4-yl)oxy]phenyl]-6-methyl-8-oxo-7-thiophen-2-yl-3,4-dihydro-1H-pyrido [2,1-c][1,4]oxazine-9-carboxamide]	≤ 100	–	≤ 100
COc1cc2nccc(Oc3ccc(NC(=O)c4c5n(c(C)c(-c6ccco6)c4=O)CCOC5)cc3)c2nc1OC [Compound 315, N-[4-[(6,7-Dimethoxy-1,5-naphthyridin-4-yl)oxy]phenyl]-7-(furan-2-yl)-6-methyl-8-oxo-3,4-dihydro-1H-pyrido[2,1-c][1,4]oxazine-9-carboxamide]	≤ 100	–	≤ 100
COc1cc2nccc(Oc3ccc(NC(=O)c4c5n(c(C)c(-c6ccsc6)c4=O)CCOC5)cc3)c2nc1OC [Compound 312, N-[4-[(6,7-Dimethoxy-1,5-naphthyridin-4-yl)oxy]phenyl]-6-methyl-8-oxo-7-thiophen-3-yl-3,4-dihydro-1H-pyrido [2,1-c][1,4]oxazine-9-carboxamide]	≤ 100	–	≤ 100

Other lines, results leading:

IC50 (Mer) [nM]	IC50 (KDR) [nM]	IC50 (Met) [nM]	Structure (SMILES)
≤ 100	300 to 1000	≤ 100	COc1cc2nccc(Oc3ccc(NC(=O)c4ccc(C)n(-c5ccnc(OC(C)C)c5)c4=O)cc3F)c2nc1OC [Compound 225, N-[4-[(6,7-Dimethoxy-1,5-naphthyridin-4-yl)oxy]-3-fluorophenyl]-6-methyl-2-oxo-1-(2-propan-2-yloxypyridin-4-yl)pyridine-3-carboxamide]
≤ 100	≤ 100	≤ 100	COCc1nc(C)c(-c2ncccc2C)c(O)c1C(=O)Nc1ccc(Oc2ccnc3cc(OC)c(OC)nc23)c(F)c1 [Compound 196, N-[4-[(6,7-Dimethoxy-1,5-naphthyridin-4-yl)oxy]-3-fluorophenyl]-4-hydroxy-2-(methoxymethyl)-6-methyl-5-(3-methylpyridin-2-yl)pyridine-3-carboxamide]
≤ 100	≤ 100	≤ 100	COc1cc2nccc(Oc3ccc(NC(=O)c4c(C)ncc(-c5ccoc5)c4O)cc3F)c2nc1OC [Compound 122, N-[4-[(6,7-Dimethoxy-1,5-naphthyridin-4-yl)oxy]-3-fluorophenyl]-5-(furan-3-yl)-4-hydroxy-2-methylpyridine-3-carboxamide]
≤ 100	–	≤ 100	COc1cc2nccc(Oc3ccc(NC(=O)c4c5n(c(C)c(-c6ccoc6)c4=O)CCOC5)cc3)c2nc1OC [Compound 311, N-[4-[(6,7-Dimethoxy-1,5-naphthyridin-4-yl)oxy]phenyl]-7-(furan-3-yl)-6-methyl-8-oxo-3,4-dihydro-1H-pyrido[2,1-c][1,4]oxazine-9-carboxamide]
